According to patent publication US20080032933A1, “Type V Phosphodiesterase Inhibitors and Natriuretic Polypeptides” (MAYO FOUNDATION FOR MEDICAL EDUCATION AND RESEARCH, priority 2005, published 2008):
Like-named read-outs stand apart in the source and are kept apart here. No end group written: not given here.

Tests used:
[1] = tested on: male mongrel dogs with overt chronic heart failure produced by rapid ventricular pacing; details: dog, in vivo
Description: (§4) Studies were conducted in 2 groups of male mongrel dogs (18-23 kg) with overt chronic heart failure produced by rapid ventricular pacing at 240 beats per minute (bpm) for ten days on a fixed sodium diet. Group 1 (n=6) received Sildenafil (50 mg orally three times a day) during the 10 days of pacing and one dose an hour before the subcutaneous (SQ) administration of BNP on day 11. Group 2 (n=6) received no PDE V inhibitor, but did receive SQ BNP alone on day 11 of CHF.
(§5) Acute SQ BNP administration was performed as follows. On day 11 of rapid ventricular pacing at 240 bpm, an experiment was carried out to determine the cardiorenal and humoral function in both groups and also the response to acute SQ BNP administration (5 μg/kg). […] On the morning of the experiment, only group 1 received a final dose of Sildenafil 50 mg one hour before the dogs were anesthetized with sodium pentobarbital (15 mg/kg, i.v.), intubated, and mechanically ventilated with supplemental oxygen (Harvard respirator, Amersham, Millis, Mass.) at 20 cycles per minute. A flow-directed balloon-tipped thermodilution catheter (Ohmeda, Criticath, Madison, Wis.) was advanced into the pulmonary artery via the external jugular vein for cardiac hemodynamic measurement. The femoral artery was cannulated for blood pressure monitoring and blood sampling. The femoral vein was also cannulated for inulin and normal saline infusion. The left kidney was exposed via a flank incision, and the ureter was cannulated for urine collection. A calibrated electromagnetic flow probe was placed around the renal artery to measure renal blood flow (RBF).
(§6) The experiment began after a 60-minute equilibration period, with a 30-minute baseline urinary clearance. After the 30-minute baseline urinary clearance, SQ canine BNP 5 μg/kg was administered in the right hind leg. Following a 15-minute lead-in period, a 60-minute urinary clearance period was performed. Cardiovascular parameters measured during the acute experiment included mean arterial blood pressure (MAP), right atrial pressure (RAP), mean pulmonary arterial pressure (PAP), cardiac output (CO), and pulmonary capillary wedge pressure (PCWP). CO was determined by thermodilution in triplicate and averaged (Cardiac Output model 9510-A computer, American Edwards Laboratories, Irvine, Calif.). MAP was assessed via direct measurement from the femoral arterial catheter. Systemic vascular resistance (SVR) was calculated as [SVR=(MAP−RAP)/CO]. Inulin was administered intravenously at the start of the equilibration period as a calculated bolus, followed by a 1 mL/min continuous infusion to achieve plasma levels of 40-60 mg/dL. Glomerular filtration rate (GFR) was measured by inulin clearance.
(§7) Cardiovascular hemodynamics were measured at the start of each urinary clearance. Arterial blood was collected in heparin and EDTA tubes and immediately placed on ice midway through each clearance. After centrifugation at 2,500 rpm at 4° C., plasma was decanted and stored at −20° C. until analysis. Urine was collected on ice during the entire period of each clearance for assessment of urine volume, electrolytes, and inulin. Urine collected for cGMP analysis was heated to more than 90° C. before storage.
(§8) Plasma samples for BNP renin and angiotensin II were measured by radioimmunoassay (RIA) using methods described elsewhere (Chen et al., Circulation, 96:I-524 (1997)). Plasma and urinary samples for cGMP were measured by RIA using methods described elsewhere (Steiner et al., J. Biol. Chem., 247:1106-1113 (1972)). Urinary and plasma inulin concentrations were measured by the anthrone method (Davidson and Sachner, J. Lab. Clin. Med., 62:351-356 (1963)).

[2] = tested on: male mongrel dogs with overt chronic heart failure produced by rapid ventricular pacing; test: Humoral, hemodynamic and renal response to acute SQ BNP on day 11 of pacing-induced CHF
Description: as §4, §5, §6, §7, §8

[3] = tested on: male mongrel dogs with overt chronic heart failure produced by rapid ventricular pacing; test: LV remodeling (echocardiography FS, CO, LV mass, plasma BNP) after 10 days of PDE V inhibitor in pacing-induced CHF; format: in vivo, dog
Description: (§1) A model of pacing-induced overt chronic heart failure was used (Chen et al., Circulation, 100:2443-2448 (1999)). Briefly, all dogs underwent implantation of a programmable cardiac pacemaker (Medtronic, Minneapolis, Minn.). Under pentobarbital sodium anesthesia (30 mg/kg, intravenous) and artificial ventilation (Harvard respirator, Harvard Apparatus, Millis, Mass.) with 5 L/min supplemental oxygen, a left lateral thoracotomy and pericardiotomy were performed. With the heart exposed, a screw-in epicardial pacemaker lead was implanted into the right ventricle. The pacemaker generator was implanted subcutaneously into the left chest wall and connected to the pacemaker lead. Dogs received pre- and post-operative prophylactic antibiotic treatment with 225 mg clindamycin subcutaneously and 400,000 U procaine penicillin G plus 500 mg dihydrostreptomycin intramuscularly (Combiotic, Pfizer, Inc., New York, N.Y.). Post-operative prophylactic antibiotic was continued through the first two post-operative days. Dogs were fed a fixed sodium diet (58 mEq/day, Hill's ID) and allowed water ad lib. All dogs were walked daily. Appetite, activity, body temperature, and condition of surgical skin sites were documented. Following a 14-day post-operative recovery period, the pacemaker was turned on at 240 bpm.
Echocardiography was carried out at baseline before the pacemaker was turned on and at day 10 of pacing to determine LV fractional shortening (FS). Echocardiographic images were obtained in the conscious dog standing in a minimally restraining sling. Simultaneous electrocardiography was obtained. The optimal images were generally obtained from the right lateral chest wall just above the sternum at the equivalent of the anterior axillary line. Images analogous to the para-sternal long axis and para-sternal short axis views (human echocardiography) were consistently obtained at the base, mid-ventricular, and para-apical levels. LV two-dimensional (2D) and M-mode images were obtained with a 2.5-MHz ultrasonic transducer (General Electric Systems Five). LV M-mode tracings were obtained under 2D guidance using the 2D short-axis views between the two papillary muscles just distal to the mitral valve leaflet tips. All images were obtained in sinus rhythm. Care was taken to ensure that the M-mode cursor transects the LV in the midline, that the LV image is “on axis” (LV is round, not oval indicating an image between short and long axes), and that the cursor is perpendicular to the LV wall detecting maximal LV thickening of both the septal and posterior walls. End-diastole was defined as the maximal LV diastolic diameter at the peak of the R wave on the EKG, and end-systole was defined as the peak of the LV posterior wall motion. M-mode measurements were made in accordance with the American Society of Echocardiography leading-edge convention using the steepest continuous endocardial echoes. Measurements included LV end-diastolic (LVDd), and end-systolic dimensions (LVDs) were averaged for average dimension. FS (%)=[(LVDd−LVSd)/LVDd]*100.
(§2) Glomerular filtration rate (GFR) was measured by inulin clearance.
At the end of the acute experiment, the heart was harvested, and the LV was carefully dissected out and weighed to determine LV mass. The LV mass was divided by the body weight to give the LV mass/Kg body weight.
(§3) Results were expressed as mean ±SEM. […] GraphPad Prism software was used for the above calculation. Statistical significance was accepted as p<0.05.

[4] = tested on: male mongrel dogs with overt chronic heart failure produced by rapid ventricular pacing; test: Cardiorenal and neurohumoral profile on day 11 of pacing-induced CHF; format: in vivo, dog
Description: as §1, with “bpm. […]” for “bpm.”
as §2, §3

[5] = Untreated CHF group (no PDE V inhibitor), after SQ canine BNP 5 μg/kg alone
[6] = untreated group (no PDE V inhibitor), SQ BNP alone (FIG. 2)
[7] = 10 days of treatment, compared to the untreated group (FIG. 1)
[8] = chronic administration in experimental overt CHF
[9] = Sildenafil 50 mg orally three times a day for 10 days of pacing, mean ± SE
[10] = Sildenafil 50 mg orally three times a day for 10 days, P < 0.05 versus Untreated
[11] = PDE V inhibitor-treated group, Baseline (before SQ BNP)
[12] = PDE V inhibitor-treated group, SQ BNP (FIG. 2)
[13] = PDE V inhibitor-treated group, after SQ BNP
[14] = PDE V inhibitor-treated group, after SQ canine BNP 5 μg/kg (combination)

With “BNP: canine brain natriuretic peptide administered subcutaneously at 5 μg/kg (SPKMMHKSGCFGRRLDRIGSLSGLGCNVLRKY; ends and bridges not checked; cysteine pairing not given here; UniProt P16859 109-140, looked up)” the “plasma BNP levels with SQ BNP” value [1] was “increased similarly”, the MAP [2, 5] was 110 ± 5 and the PAP [2, 5] was 25 ± 1. The PCWP [2, 5] was 20 ± 1, the “Plasma Ang II” value [2, 5] was 73 ± 31 and the “Plasma Renin” value [2, 5] was 20 ± 5. The “Plasma cGMP” value [2, 5] was 25 ± 3 pmol/mL, the RAP [2, 5] was 6 ± 1 and the “Urinary cGMP Excretion” value [2, 5] was 3580 ± 351 fmol/min. The “GFR change with SQ BNP” value [2, 6] was “not observed”, the “PTFNa change with SQ BNP” value [2, 6] was “only trended to change” and the “UNaV change with SQ BNP” value [2, 6] was “only trended to change”. The “CO with SQ BNP” value ([2]; untreated group, after SQ BNP alone) was “unchanged”.

CCCc1nn(C)c2c(=O)[nH]c(-c3cc(S(=O)(=O)N4CCN(C)CC4)ccc3OCC)nc12 [PDE V inhibitor, Sildenafil] was tested, and the “CO (cardiac output)” value [3, 7] was “improvement”, the “LV FS (fractional shortening)” value [3, 7] was “improvement” and the LV mass [3, 7] was “reduction in LV mass”. The “plasma BNP levels” value [3, 7] was “strong trend for plasma BNP levels to be lower”, the LV remodeling [3, 8] was “improved LV remodeling” and the MAP [4, 9] was 110 ± 4 mmHg. The PAP [4, 9] was 27 ± 1 mmHg, the PCWP [4, 9] was 23 ± 1 mmHg and the RAP [4, 9] was 11 ± 1 mmHg. The RBF [4, 9] was 160 ± 21 mL/min, the UNaV [4, 9] was 2 ± 1 μEq/min and the UV [4, 9] was 0.12 ± 0.01 mL/min. The “Plasma cGMP” value [4, 10] was 43 ± 2 pmol/mL, the “Urinary cGMP” value [4, 10] was 4219 ± 900 pmol/min and the GFR ([4]; Sildenafil 50 mg orally three times a day for 10 days, inulin clearance) was 30 ± 5 mL/min. For the same compound, the MAP [2, 11] was 110 ± 4, the PAP [2, 11] was 27 ± 1 and the PCWP [2, 11] was 23 ± 1. The “Plasma Ang II” value [2, 11] was 124 ± 2, the “Plasma Renin” value [2, 11] was 16 ± 2 and the “Plasma cGMP” value [2, 11] was 43 ± 2 pmol/mL. For the same compound, the RAP [2, 11] was 11 ± 1, the “Urinary cGMP Excretion” value [2, 11] was 4219 ± 900 fmol/min and the “GFR change with SQ BNP” value [2, 12] was “increase in GFR”. The “PTFNa change with SQ BNP” value [2, 12] was “decreased significantly”, the “UNaV change with SQ BNP” value [2, 12] was “increased” and the “CO with SQ BNP” value [2, 13] was “unchanged”. For the same compound, the “plasma BNP levels with SQ BNP” value [2, 13] was “increased similarly”, the MAP [2, 14] was 103 ± 7 and the PAP [2, 14] was 23 ± 1. The PCWP [2, 14] was 18 ± 1, the “Plasma Ang II” value [2, 14] was 37 ± 2 and the “Plasma Renin” value [2, 14] was 9 ± 2. For the same compound, the “Plasma cGMP” value [2, 14] was 46 ± 3 pmol/mL, the RAP [2, 14] was 8 ± 1 and the “Urinary cGMP Excretion” value [2, 14] was 8600 ± 1600 fmol/min. For the same compound, the cardiovascular hemodynamic effects ([2]; chronic Sildenafil with acute SQ BNP in experimental overt CHF) was “without adverse cardiovascular hemodynamic effects” and the “renal response to acute SQ BNP” value [2, 8] was “enhanced”.
